“And” between values parts separate entries of the source, which are not always exact repeats. Equal entries are not always repeated.
Legend:
EAE = assay: Experimental Allergic Encephalomyelitis (EAE) model of MS; type: in vivo, mice; details: 10 mg/kg twice daily, oral gavage, 30 days
Method: EAE is an accepted animal model of autoimmune disorder (Tisch et al. Proc. Natl. Acad. Sci. USA (1994) 91:437-438). EAE was induced by injecting the encephalitogenic agent consisting of MSCH and commercial CFA containing Mycobacterium tuberculosis H37Ra to the foot-pads of the animals and pertussis toxin intravenously.
GA-DS in MSCH emulsion was injected in the four footpads. The other compounds were administered to the respective groups by oral gavage twice daily for 30 consecutive days starting from the day of induction until the termination of the study.
Scoring of EAE clinical signs was initiated from Day 10 post-EAE induction and was continued daily for 20 days. The clinical signs were recorded on observation cards according to a grading system described in the table below.
The number of dead or moribund animals in each group were summed.
The mortality rate was calculated as: [formula]
The mean maximal score (MMS) of each group was calculated as Σ maximal score of each mouse/number of mice in the group.
The percent inhibition was calculated as [formula]
The daily scores of each mouse in the test group was summed and the individual mean daily score (IMS) was calculated as IMS=daily score of mouse/observation period (days).
The mean group score (GMS) will be calculated as Σ IMS of each mouse/number of mice in the group.
The percent inhibition will be calculated as [formula]

PC-12 cells = assay: Effect on MPP+ treated PC-12 cells (LDH release); type: cell-based; details: MPP+ 1000 μM for 48 hours, tested compound 10 μM added 30 min prior to MPP+
Method: Pheochromocytoma PC-12 cells (at a density of 200,000 cells/well) were cultured for 10 days with 50 ng/ml NGF on 6-well culture dishes coated with 200 ug/ml rat tail type I collagen (BD Biosciences, Bedford, Mass., USA). On the day of the experiment the morphological differentiation of the cells was very advanced (typical network formation). In order to initiate the neurotoxic insult, cells were treated with 1000 μM of 1-methyl-4-phenylpyrdinium (MPP+) iodide salt from RBI chemicals (Natick, Mass., USA) for 48 hours in the absence or presence of tested compounds, added to the culture 30 min. prior to MPP+ administration. […] At the cellular level, neuronal cell death is induced by several mechanisms including pathological concentrations of intracellular calcium and free oxygen radicals. Therefore the positive control in this experiment was nimodipine at the concentration of 10 μM (RBI chemicals, Natick, Mass., USA)(a potent L-type calcium channel blocker). At the end of the experiment cell death was measured by assessing Lactate dehydrogenase (LDH) activity in the medium. High medium LDH indicated increased neuronal death that promoted leakage of this cytoplasmic enzyme into the medium.
Measuring lactate dehydrogenase activity in the medium was performed using a Sigma Diagnostics LD-L reagent. LDH activity was spectrophotometrically monitored at 340 nm by following the rate of conversion of oxidized nicotinamide adenine dinucleotide (NAD^+) to the reduced form of (NADH). Total LDH of each culture (extracellular+intracellular) was obtained by measuring LDH in the medium after freezing and thawing of the cultures. Basal LDH release was measured in untreated cultures (no MPP+). The neurotoxic effect was calculated according to the formula: (LDHs−LDHb)/LDHt×100. (s=sample; b=basal; t=total). Each compound was tested in sixplicate.

C57bl mice = assay: Effect on MPP+ toxicity in mice (striatal dopamine and DOPAC); type: in vivo; details: for DOPAC Pmol/mg tissue +/− S.E.M. / Dopamine Pmol/mg tissue +/− S.E.M.: 5 mg/kg oral in CMC
Method: MPP+ is a neuro-toxin and its injection into the brain causes depletion of striatal dopamine. Male C57bl mice, weighing 24-25 g were divided into 4 groups A-D receiving the following treatments:
A: Oral administration of 0.25% Carboxymethyl cellulose (CMC, 0.1 ml/mouse) and intracerebroventricular (ICV) injection of saline (10 μl/mouse).
B. Oral administration of 5 mg/kg 3a in 0.1 ml CMC, and ICV injection of 10 μl saline.
C. Oral administration of 0.1 ml CMC, and ICV injection of 30 μg MPP+ dissolved in 10 μl saline.
D. Oral administration of 5 mg/kg 3a in 0.1 ml CMC, and ICV injection of 30 μg MPP+ dissolved in 10 μl saline.
3a/CMC or CMC alone were orally administered 30 minutes before and 2 hours after ICV injection. The injection was done according to Haley T. J and McCormick W. G (Brit.J. Pharmacol., 1957, 12, 12) using ether anesthesia. Saline or MPP+/saline were injected during 1 second using a syringe that delivered the liquid at a rate of 0.6 ml/min. Two ICV injections were carried out with a 24 hour interval between them. Mice were killed six days after the last injection and striata taken for dopamine and DOPAC determinations. Each striatum was weighed, homogenized in 0.1M Perchloric acid (0.6 ml) containing 2 mM sodium metabisulfite and 0.3 mM EDTA. After centrifugation at 13000 g for 7 minutes, the supernatant was taken for catecholamine determination. Aliquotes of 20 μl were injected into the solvent stream of an HPLC apparatus equipped with a Microsorb column (packing 3 μm, 4.6 mm diameter, 12.5 cm long). The mobile phase was composed of NaH2PO4 100 mM, octan-1-sulphonic acid 1.5 mM, disodium ethylenediaminetetracetic acid 250 μM, methanol 2.3%, acetonitrile 4% in grade deionized water, at a flow rate of 1.0 ml min^−1. Dopamine and DOPAC were detected with an ESA Coulochem model 5014 detector (Bedford, Mass., USA). Column eluates were initially oxidized by an ESA guard cell (model 5020) at +300 mV, then reduced at +60 mV at detector 1 and measured at detector 2 at −250 mV.

[1] = with ICV MPP+ 30 μg (Group D), striatum six days after last injection
[2] = without MPP+, ICV saline (Group B), striatum

SMILES | melting point [°C] | GMS % Inhibition (EAE) [%] | MMS % Inhibition (EAE) [%] | Mortality % Inhibition (EAE) [%] | Percent of total LDH release (mean ± S.E.M.) (PC-12 cells) | also measured
C#CCNc1nc2ccc(OC(F)(F)F)cc2s1 [Compound 4, Prop-2-ynyl-(6-trifluoromethoxy-benzothiazol-2-yl)-amine] | 138 to 140 | – | – | – | – | –
C#CCN=c1sc2cc(OC(F)(F)F)ccc2n1CC(=O)c1ccc(C)cc1 [Compound 13, 2-(2-Prop-2-ynylimino-6-trifluoromethoxy-benzothiazole-3-yl)-1-p-tolyl-ethanone] | 98 to 100 | – | – | – | – | –
C#CCN(CC(=O)c1ccc(C)cc1)c1nc2ccc(OC(F)(F)F)cc2s1 [Compound 9, 2-[Prop-2-ynyl-(6-trifluoromethoxy-benzothiazole-2-yl)-amino]-1-p-tolyl-ethanone] | – | 57.6 | 48.8 | 50 | – | –
C#CCN(C)c1nc2ccc(OC(F)(F)F)cc2s1.Cl [Compound 3a, Methyl-prop-2-ynyl-(6-trifluoromethoxy-benzothiazol-2-yl)-amine.HCl salt] | – | – | – | – | 10.9% and 10.9 ± 2.3% | Effect on MPP+ caused depletion in striatal concentrations of dopamine and DOPAC (C57bl mice; Group D, 5 mg/kg oral, MPP+ ICV): reduced this depletion; DOPAC Pmol/mg tissue +/− S.E.M. (C57bl mice; [1]): 3.7 +/− 0.2 Pmol/mg tissue; Dopamine Pmol/mg tissue +/− S.E.M. (C57bl mice; [1]): 66.0 +/− 3.4 Pmol/mg tissue; DOPAC Pmol/mg tissue +/− S.E.M. (C57bl mice; [2]): 4.8 +/− 0.4 Pmol/mg tissue; Dopamine Pmol/mg tissue +/− S.E.M. (C57bl mice; [2]): 78.2 +/− 4.3 Pmol/mg tissue
C#CCN(C)c1nc2ccc(OC(F)(F)F)cc2s1 [Compound 3, Methyl-prop-2-ynyl-(6-trifluoromethoxy-benzothiazol-2-yl)-amine] | – | 87.5 | 73.5 | 100 | – | –
C#CCNc1nc2ccc(OC(F)(F)F)cc2s1.Cl [Compound 4a, Prop-2-ynyl-(6-trifluoromethoxy-benzothiazol-2-yl)-amine.HCl salt] | – | – | – | – | 25 ± 8.0% | –
COCCOC(=O)C1=C(C)NC(C)=C(C(=O)OC(C)C)C1c1cccc([N+](=O)[O-])c1 (stereo not drawn) [Nimodipine, reference compound] | – | – | – | – | 3.6 ± 0.4% | Percent of total LDH release (mean ± S.E.M.) (PC-12 cells; listed as nimodipine): 3.6%
C#CC(C)N(C)c1nc2ccc(OC(F)(F)F)cc2s1 (stereo not drawn) [Compound 6, Methyl-(1-methyl-prop-2-ynyl)-(6-trifluoromethoxy-benzothiazol-2-yl)-amine] | 42 to 43 | – | – | – | – | –
C#CCN=c1sc2cc(OC(F)(F)F)ccc2n1C [Compound 10, (3-Methyl-6-trifluoromethoxy-3H-benzothiazol-2-ylidene)-prop-2-ynyl-amine] | – | 37.5 | 34.1 | 40 | – | –

Reference: patent US20040176430A1, “Propargyl-trifluoromethoxy-amino-benzothiazole derivatives” (priority 2002, published 2004)
